In the NIST ThermoML archive (doi:10.1016/j.fluid.2006.11.004):
Numbers after ± are expanded uncertainties.

Assay: xn = mol fraction of the nth substance listed
Conditions: 273.15 K, 111 kPa, Fluid (supercritical or subcritical phases), Flux Response Technology (based on capillary viscometry)

With `FC(F)(Cl)Cl` [dichlorodifluoromethane] + O=C=O the excess molar volume (x2 = 0) was 0 ± 1e-07 m3/mol, the excess molar volume (x2 = 0.0001) was 0 ± 1e-07 m3/mol and the excess molar volume (x2 = 0.113) was 3.11e-05 ± 4.4e-06 m3/mol. The excess molar volume (x2 = 0.236) was 4.65e-05 ± 6.5e-06 m3/mol, the excess molar volume (x2 = 0.362) was 5.16e-05 ± 7.2e-06 m3/mol and the excess molar volume (x2 = 0.48) was 5.54e-05 ± 7.8e-06 m3/mol. It also gave an excess molar volume (x2 = 0.482) of 4.91e-05 ± 6.9e-06 m3/mol, an excess molar volume (x2 = 0.56) of 5.6e-05 ± 7.8e-06 m3/mol and an excess molar volume (x2 = 0.561) of 5.24e-05 ± 7.3e-06 m3/mol. The excess molar volume (x2 = 0.6) was 5.03e-05 ± 7e-06 m3/mol, the excess molar volume (x2 = 0.715) was 5.03e-05 ± 7e-06 m3/mol and the excess molar volume (x2 = 0.833) was 3.21e-05 ± 4.5e-06 m3/mol.

For `O=C=O` [carbon dioxide] + FC(F)(Cl)Cl, the excess molar volume (x1 = 1) was 0 ± 1e-07 m3/mol.
